This is an account of results in patent publication US11021493B2, “1,4-thiazine dioxide and 1,2,4-thiadiazine dioxide derivatives as beta-secretase inhibitors and methods of use” (AMGEN INC., priority 2016, dated 2021).

A word on the IC50: it is the concentration needed to halve the response being measured.

Some results are limits rather than exact numbers.

One assay has as its target Cathepsin D (CatD) (Homo sapiens (Human), UniProt P07339). Nature of the assay: In vitro enzymatic Cathepsin D (CatD) FRET assay. It is filed as biochemical. Particulars: read-out: Cat D Enzyme IC50.
The next assay concerns the target human recombinant BACE2 (Homo sapiens (Human), UniProt Q9Y5Z0). Nature of the assay: In vitro enzymatic BACE2 FRET assay. Type of assay: biochemical. The settings on record: read-out: BACE2 Enzyme IC50.
The target of assay [1] is T1, BACE1 (Homo sapiens (Human), UniProt P56817). Nature of the assay: In vitro enzymatic BACE1 FRET assay. It is filed as biochemical. The settings on record: read-out: BACE1 Enzyme IC50.
Target sequence in this assay (P56817 46-501): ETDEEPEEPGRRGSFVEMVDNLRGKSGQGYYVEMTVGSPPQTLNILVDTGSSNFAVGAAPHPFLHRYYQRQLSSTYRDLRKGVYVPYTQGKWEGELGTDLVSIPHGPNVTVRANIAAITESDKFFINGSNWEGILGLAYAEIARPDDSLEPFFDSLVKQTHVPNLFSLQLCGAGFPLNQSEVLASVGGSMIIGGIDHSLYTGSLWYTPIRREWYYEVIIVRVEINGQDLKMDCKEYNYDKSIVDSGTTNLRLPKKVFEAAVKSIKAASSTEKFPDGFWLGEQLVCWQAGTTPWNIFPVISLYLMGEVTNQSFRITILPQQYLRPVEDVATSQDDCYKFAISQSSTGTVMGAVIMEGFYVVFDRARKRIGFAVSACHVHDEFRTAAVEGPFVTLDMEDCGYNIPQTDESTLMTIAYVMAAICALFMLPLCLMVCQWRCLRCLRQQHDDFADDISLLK
Assay [2] has as its target T1, BACE1. Kind of assay: In vitro BACE1 cell-based assay (Aβ40 in conditioned medium of cells stably expressing APP, HTRF). Particulars: Aβ40 in conditioned media after 24 h incubation. For orientation: Time-resolved FRET reads energy transfer from a long-lived donor to a nearby acceptor.
Target sequence in this assay (P56817 46-501, species assumed): as the sequence (P56817 46-501) above

human recombinant BACE2, sequence (Q9Y5Z0 63-518): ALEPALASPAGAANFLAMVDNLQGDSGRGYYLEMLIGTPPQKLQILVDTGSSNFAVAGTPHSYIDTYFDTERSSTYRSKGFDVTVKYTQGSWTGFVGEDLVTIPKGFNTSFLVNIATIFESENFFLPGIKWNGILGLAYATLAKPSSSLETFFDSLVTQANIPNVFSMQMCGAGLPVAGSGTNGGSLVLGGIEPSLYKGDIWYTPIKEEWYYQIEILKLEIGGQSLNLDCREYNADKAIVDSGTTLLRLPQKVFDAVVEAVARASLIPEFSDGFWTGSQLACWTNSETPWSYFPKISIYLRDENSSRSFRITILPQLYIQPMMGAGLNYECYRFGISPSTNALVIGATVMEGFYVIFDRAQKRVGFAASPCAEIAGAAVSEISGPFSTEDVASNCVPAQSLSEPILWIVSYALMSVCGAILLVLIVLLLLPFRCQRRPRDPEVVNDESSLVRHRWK
Cathepsin D (CatD), sequence (P07339 65-412, species assumed): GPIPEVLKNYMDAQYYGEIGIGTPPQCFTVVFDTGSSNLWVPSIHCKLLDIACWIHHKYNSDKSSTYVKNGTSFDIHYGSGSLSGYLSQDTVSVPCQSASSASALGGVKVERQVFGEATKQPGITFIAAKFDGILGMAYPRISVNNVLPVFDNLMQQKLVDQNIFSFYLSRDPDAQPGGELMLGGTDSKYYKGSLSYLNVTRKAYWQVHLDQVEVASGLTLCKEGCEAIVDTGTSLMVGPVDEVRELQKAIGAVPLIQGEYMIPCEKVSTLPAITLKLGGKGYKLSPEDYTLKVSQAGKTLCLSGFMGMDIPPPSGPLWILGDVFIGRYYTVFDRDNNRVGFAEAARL

As to `CC#CCOc1cnc(/C(F)=C/c2ccc(F)c([C@]3(CF)CS(=O)(=O)C(C)(C)C(N)=N3)c2)cn1` [Example 194, (S,Z)-5-amino-3-(5-(2-(5-(but-2-yn-1-yloxy)pyrazin-2-yl)-2-fluorovinyl)-2-fluorophenyl)-3-(fluoromethyl)-6,6-dimethyl-3,6-dihydro-2H-1,4-thiazine 1,1-dioxide], the IC50 at Cathepsin D (CatD) was 49400 nM; on human recombinant BACE2, 181 nM; on BACE1 [1] it was 7 nM; against BACE1 [2], 55 nM.

Turning to `C#C[C@H](C)Oc1cnc(/C(F)=C/c2ccc(F)c([C@]3(CF)CS(=O)(=O)C(C)(C)C(N)=N3)c2)cn1` [Example 195, (S)-5-amino-3-(5-((Z)-2-(5-((S)-but-3-yn-2-yloxy)pyrazin-2-yl)-2-fluorovinyl)-2-fluorophenyl)-3-(fluoromethyl)-6,6-dimethyl-3,6-dihydro-2H-1,4-thiazine 1,1-dioxide], the half-maximal inhibitory concentration (IC50) on Cathepsin D (CatD) is 64900 nM; at human recombinant BACE2 it was 523 nM; at BACE1 [1] it was 11 nM; on BACE1 [2], 188 nM.

Regarding `CN1C(N)=N[C@](C)(c2cc(/C=C(\F)c3ccc4c(c3)OCCO4)ccc2F)CS1(=O)=O` [Example 196, (R,Z)-3-amino-5-(5-(2-(2,3-dihydrobenzo[b][1,4]dioxin-6-yl)-2-fluorovinyl)-2-fluorophenyl)-2,5-dimethyl-5,6-dihydro-2H-1,2,4-thiadiazine 1,1-dioxide], the IC50 at Cathepsin D (CatD) was found to be 56100 nM; at human recombinant BACE2, 157 nM; on BACE1 [1], 583 nM; against BACE1 [2] it was 1080 nM.

Consider `CC1(C)C(N)=N[C@](C)(c2cc(/C=C(\F)c3ccc(C#N)cn3)cnc2F)CS1(=O)=O` [Example 197, (R,Z)-6-(2-(5-(5-amino-3,6,6-trimethyl-1,1-dioxido-3,6-dihydro-2H-1,4-thiazin-3-yl)-6-fluoropyridin-3-yl)-1-fluorovinyl)nicotinonitrile], for which the IC50 on Cathepsin D (CatD) was found to be 81300 nM; at human recombinant BACE2 it was 87 nM; on BACE1 [1], 33 nM; on BACE1 [2] it was 52 nM.

As for `CC1(C)C(N)=N[C@](C)(c2cc(/C=C(\F)c3cnc(Cl)cn3)cnc2F)CS1(=O)=O` [Example 203, (R,Z)-5-amino-3-(5-(2-(5-chloropyrazin-2-yl)-2-fluorovinyl)-2-fluoropyridin-3-yl)-3,6,6-trimethyl-3,6-dihydro-2H-1,4-thiazine 1,1-dioxide], the IC50 stood at 85400 nM on Cathepsin D (CatD), 56 nM at human recombinant BACE2, 125 nM at BACE1 [1] and 196 nM against BACE1 [2].

Turning to `CC1(C)C(N)=N[C@](C)(c2cc(/C=C(\F)c3cnc(OCc4ccccc4)cn3)cnc2F)CS1(=O)=O` [Example 209, (R,Z)-5-amino-3-(5-(2-(5-(benzyloxy)pyrazin-2-yl)-2-fluorovinyl)-2-fluoropyridin-3-yl)-3,6,6-trimethyl-3,6-dihydro-2H-1,4-thiazine 1,1-dioxide], the IC50 at Cathepsin D (CatD) worked out at 46500 nM; on human recombinant BACE2, 311 nM; on BACE1 [1], 124 nM; at BACE1 [2] it was 2520 nM.

As for `CC1(C)C(N)=N[C@](C)(c2cc(/C=C(\F)c3cnc(OCc4ccncc4)cn3)ccc2F)CS1(=O)=O` [Example 210, (R,Z)-5-amino-3-(2-fluoro-5-(2-fluoro-2-(5-(pyridin-4-ylmethoxy)pyrazin-2-yl)vinyl)phenyl)-3,6,6-trimethyl-3,6-dihydro-2H-1,4-thiazine 1,1-dioxide], the IC50 at Cathepsin D (CatD) is 467000 nM; at human recombinant BACE2 it was 476 nM; on BACE1 [1], 1720 nM; on BACE1 [2] it was 2230 nM.

On to `CC1(C)C(N)=N[C@](C)(c2cc(/C=C(\F)c3cnc(Oc4ccccc4)cn3)ccc2F)CS1(=O)=O` [Example 211, (R,Z)-5-amino-3-(2-fluoro-5-(2-fluoro-2-(5-phenoxypyrazin-2-yl)vinyl)phenyl)-3,6,6-trimethyl-3,6-dihydro-2H-1,4-thiazine 1,1-dioxide], for which the IC50 at Cathepsin D (CatD) is 59500 nM; at human recombinant BACE2, 333 nM; on BACE1 [1], 349 nM; on BACE1 [2] it was 1820 nM.

Take `C[C@@H](CO)Oc1cnc(/C(F)=C/c2ccc(F)c([C@]3(C)CS(=O)(=O)C(C)(C)C(N)=N3)c2)cn1` [Example 218, (R)-5-amino-3-(2-fluoro-5-((Z)-2-fluoro-2-(5-(((S)-1-hydroxypropan-2-yl)oxy)pyrazin-2-yl)vinyl)phenyl)-3,6,6-trimethyl-3,6-dihydro-2H-1,4-thiazine 1,1-dioxide]: the IC50 on Cathepsin D (CatD) was determined as 195000 nM; on human recombinant BACE2, 285 nM; on BACE1 [1], 180 nM; against BACE1 [2] it was 529 nM.

With `C[C@H](O)COc1cnc(/C(F)=C/c2ccc(F)c([C@]3(C)CS(=O)(=O)C(C)(C)C(N)=N3)c2)cn1` [Example 219, (R)-5-amino-3-(2-fluoro-5-((Z)-2-fluoro-2-(5-((S)-2-hydroxypropoxy)pyrazin-2-yl)vinyl)phenyl)-3,6,6-trimethyl-3,6-dihydro-2H-1,4-thiazine 1,1-dioxide], the IC50 at Cathepsin D (CatD) worked out at 208000 nM; at human recombinant BACE2 it was 377 nM; on BACE1 [1], 136 nM; on BACE1 [2], 142 nM.

`CN1C(N)=N[C@](C)(c2cc(/C=C(\F)c3cc(F)c(C#N)cn3)ccc2F)CS1(=O)=O` [Example 226, 6-((Z)-2-(3-((5R)-3-amino-2,5-dimethyl-1,1-dioxido-5,6-dihydro-2H-1,2,4-thiadiazin-5-yl)-4-fluorophenyl)-1-fluoroethenyl)-4-fluoro-3-pyridinecarbonitrile]: the IC50 at Cathepsin D (CatD) stood at 47000 nM; at human recombinant BACE2, 14 nM; at BACE1 [1], 7 nM; at BACE1 [2] it was 341 nM.

On to `COc1cc(/C(F)=C/c2ccc(F)c([C@]3(C)CS(=O)(=O)N(C)C(N)=N3)c2)ncc1Cl` [Example 230, (R,Z)-3-amino-5-(5-(2-(5-chloro-4-methoxypyridin-2-yl)-2-fluorovinyl)-2-fluorophenyl)-2,5-dimethyl-5,6-dihydro-2H-1,2,4-thiadiazine 1,1-dioxide], for which the IC50 turned out to be 111000 nM on Cathepsin D (CatD), 24 nM at human recombinant BACE2, 179 nM at BACE1 [1] and 656 nM on BACE1 [2].

On to `CN1C(N)=N[C@](C)(c2cc(/C=C(\F)c3cc(C#N)c(Cl)cn3)ccc2F)CS1(=O)=O` [Example 231, (R,Z)-2-(2-(3-(3-amino-2,5-dimethyl-1,1-dioxido-5,6-dihydro-2H-1,2,4-thiadiazin-5-yl)-4-fluorophenyl)-1-fluorovinyl)-5-chloroisonicotinonitrile], for which the concentration for half-maximal inhibition (IC50) at Cathepsin D (CatD) was greater than 4940 nM; at human recombinant BACE2 it was 94 nM; at BACE1 [1], 84 nM; against BACE1 [2], 97 nM.

`CN1C(N)=N[C@](C)(c2cc(/C=C(\F)c3cc(F)c(Cl)cn3)ccc2F)CS1(=O)=O` [Example 232, (R,Z)-3-amino-5-(5-(2-(5-chloro-4-fluoropyridin-2-yl)-2-fluorovinyl)-2-fluorophenyl)-2,5-dimethyl-5,6-dihydro-2H-1,2,4-thiadiazine 1,1-dioxide]: the 50% inhibitory concentration (IC50) was determined as 68800 nM on Cathepsin D (CatD), 2 nM on human recombinant BACE2, 7 nM on BACE1 [1] and 29 nM at BACE1 [2].

Regarding `CN1C(N)=N[C@](C)(c2cc(/C=C(\F)c3ncc4c(n3)OCCO4)ccc2F)CS1(=O)=O` [Example 234, (R,Z)-3-Amino-5-(5-(2-(6,7-dihydro-[1,4]dioxino[2,3-d]pyrimidin-2-yl)-2-fluorovinyl)-2-fluorophenyl)-2,5-dimethyl-5,6-dihydro-2H-1,2,4-thiadiazine 1,1-dioxide], the IC50 amounted to 107000 nM on Cathepsin D (CatD), 554 nM on human recombinant BACE2, 392 nM on BACE1 [1] and 99 nM against BACE1 [2].

Take `C[C@@H]1COc2nc(/C(F)=C/c3ccc(F)c([C@]4(C)CS(=O)(=O)N(C)C(N)=N4)c3)ncc2O1` [Example 235, (R)-3-amino-5-(2-fluoro-5-((Z)-2-fluoro-2-((R)-6-methyl-6,7-dihydro-[1,4]dioxino[2,3-d]pyrimidin-2-yl)vinyl)phenyl)-2,5-dimethyl-5,6-dihydro-2H-1,2,4-thiadiazine 1,1-dioxide]: the concentration for half-maximal inhibition (IC50) at Cathepsin D (CatD) was 160000 nM; on human recombinant BACE2, 533 nM; on BACE1 [1], 268 nM; against BACE1 [2] it was 128 nM.

For `C[C@H]1COc2cnc(/C(F)=C/c3ccc(F)c([C@]4(C)CS(=O)(=O)N(C)C(N)=N4)c3)nc2O1` [Example 236, (R)-3-amino-5-(2-fluoro-5-((Z)-2-fluoro-2-((S)-7-methyl-6,7-dihydro-[1,4]dioxino[2,3-d]pyrimidin-2-yl)vinyl)phenyl)-2,5-dimethyl-5,6-dihydro-2H-1,2,4-thiadiazine 1,1-dioxide], the IC50 on Cathepsin D (CatD) was determined as 55200 nM; at human recombinant BACE2, 2360 nM; on BACE1 [1], 1120 nM; against BACE1 [2], 410 nM.

In the case of `CN1C(N)=N[C@](C)(c2cc(/C=C(\F)c3cc4c(cn3)OCCC4)ccc2F)CS1(=O)=O` [Example 239, (5R)-5-(5-((Z)-2-(3,4-dihydro-2H-pyrano[2,3-c]pyridin-6-yl)-2-fluoroethenyl)-2-fluorophenyl)-2,5-dimethyl-5,6-dihydro-2H-1,2,4-thiadiazin-3-amine 1,1-dioxide], the IC50 at Cathepsin D (CatD) is 329000 nM; at human recombinant BACE2 it was 143 nM; on BACE1 [1], 530 nM; against BACE1 [2] it was 1020 nM.

Take `CN1C(N)=N[C@](C)(c2cc(/C=C(\F)c3ccc(F)cn3)ccc2F)CS1(=O)=O` [Example 240, (5R)-5-(2-fluoro-5-((Z)-2-fluoro-2-(5-fluoro-2-pyridinyl)ethenyl)phenyl)-2,5-dimethyl-5,6-dihydro-2H-1,2,4-thiadiazin-3-amine 1,1-dioxide]: the IC50 at Cathepsin D (CatD) was determined as 375000 nM; on human recombinant BACE2 it was 8 nM; at BACE1 [1], 34 nM; against BACE1 [2], 67 nM.
